The values that follow come from PMC9414986, “Phytochemical Characterization of Cannabis sativa L. Chemotype V Reveals Three New Dihydrophenanthrenoids That Favorably Reprogram Lipid Mediator Biosynthesis in Macrophages” (Plants, 2022).

What is called IC50 is the midpoint of a concentration-inhibition curve.

Experiment [1] relates to microsomal prostaglandin E2 synthase (mPGES)-1. Further details: method as in doi:10.1016/j.phanu.2014.05.001. The following applies: cited from earlier work.
For another experiment, the system named is human M2 macrophages. As to the kind of experiment: lipid mediator profile (SPMs, precursors, free PUFAs) in activated human M2 macrophages. The format is cell-based. The text has this: (§1) Leukocyte reduction system chamber (LRSC) filters were provided by the Central Institute for Blood Transfusion and Immunological Department of Tirol Kliniken GmbH (Austria) with the informed consent of the volunteers. Only healthy blood donors between 18 and 65 years of age without medication for chronic diseases, fever, or deficiency symptoms and after physical examinations by trained medical personnel were included in the study. Human peripheral blood mononuclear cells (PBMC) were freshly isolated from LRSC filters. After dilution of the cell concentrates in PBS pH 7.4 containing 12.5 mM citrate and 14 mM glucose (130 mL, 37 °C), immune cells were separated via isopycnic density gradient centrifugation (400× g, 20 min, RT) using Histopaque®-1077 (Sigma-Alrich, St. Louis, MO, USA). PBMC were obtained from the interphase after hypotonic lysis of erythrocytes using water (2–5 mL) and two consecutive washing steps with PBS pH 7.4 (50 mL) (270× g, 5 min, RT).
To differentiate monocytes, which are the predominant cell type in PBMC, towards M0 macrophages, they were first stimulated with 20 ng/mL GM-CSF or M-CSF (HiSS Diagnostics GmbH, Freiburg, Germany) for 6 days in macrophage medium (RPMI 1640 supplemented with 10% FCS, 2 mmol/L L-glutamine, 100 U/mL penicillin and 100 μg/mL streptomycin). These monocyte-derived macrophages were polarized for another 48 h in macrophage medium with 100 ng/mL lipopolysaccharide and 20 ng/mL interferon-γ (Peprotech, Hamburg, Germany) to obtain M1 or with 20 ng/mL interleukin-4 (Peprotech, Hamburg, Germany) to obtain M2 phenotypes.
Lipid mediator biosynthesis in human M1/M2 macrophages (1.5 mL PBS pH 7.4 plus 1 mM CaCl2) was stimulated with Staphylococcus aureus (LS1)-conditioned medium (1.0%, 3 h) after 15 min preincubation with DMSO (0.1%) or test compounds and stopped by addition of ice-cold MeOH (2.5 mL) containing deuterium-labeled internal standards (200 pg d8-5S-hydroxyeicosatetraenoic acid (HETE), d4-leukotriene (LT)B4, d5-lipoxin (LX)A4, d5-resolvin (Rv)D2, d4-prostaglandin (PG)E2, and 2000 pg d8-arachidonic acid (Cayman Chemical, Ann Arbor, MI, USA)). Samples were incubated at −20 °C for at least 1 h to precipitate proteins and then centrifuged (750× g, 10 min, 4 °C). The supernatant was mixed with acidified water (7 mL, pH 3.5) and loaded onto solid phase cartridges (Sep-Pak® Vac 6cc 500 mg/6 mL C-18 (Waters, Milford, MA, USA)), which were conditioned with MeOH (6 mL) and equilibrated with water (2 mL). Columns were washed with water (6 mL) and hexane (6 mL, 4 °C) before lipid mediators were eluted with methyl formiate (6 mL). The organic phase was evaporated to dryness using a TurboVap LV (Biotage, Uppsala, Sweden) and the remaining lipids were dissolved in MeOH/water (1:1), centrifuged twice (21,100× g, 4 °C, 5 min), and subjected to UPLC-MS/MS analysis. Chromatographic separation of lipid mediators was carried out at 55°C on an Acquity UPLC BEH C-18 column (130Å, 1.7 μm, 2.1 × 100 mm, Waters) using an ExionLC AD UHPLC system (Sciex, Framingham, MA, USA). The gradient of mobile phase A (water/MeOH, 90/10, 0.01% acetic acid) and mobile phase B (MeOH, 0.01% acetic acid) was ramped at a flow rate of 0.35 mL/min from 35.6% to 84.4% B within 12.5 min followed by 5 min of isocratic elution at 97.8% B. Lipid mediators and fatty acids were analyzed in the negative ion mode by scheduled multiple reaction monitoring (detection window: 120 s) using a QTRAP 6500^+ Mass Spectrometer (Sciex), which was equipped with an electrospray ionization source. The curtain gas was set to 40 psi, the collision gas to medium, the ion spray voltage to −4000 V, the heated capillary temperature to 500 °C, and the sheath and auxiliary gas pressure to 40 psi. Transitions selected for quantitation and the corresponding declustering potential (DP), entrance potential (EP), collision energy (CE) and collision cell exit potential (CXP) are listed in Table 4. […]

Experiment [2] deals with soluble epoxide hydrolase (sEH). Description: cellular sEH activity (DHETs/EETs ratio) in human M2 macrophages. Type of experiment: cell-based. The text has this: (§2) Leukocyte reduction system chamber (LRSC) filters were provided by the Central Institute for Blood Transfusion and Immunological Department of Tirol Kliniken GmbH (Austria) with the informed consent of the volunteers. Only healthy blood donors between 18 and 65 years of age without medication for chronic diseases, fever, or deficiency symptoms and after physical examinations by trained medical personnel were included in the study. Human peripheral blood mononuclear cells (PBMC) were freshly isolated from LRSC filters. […]
(§3) Lipid mediator biosynthesis in human M1/M2 macrophages (1.5 mL PBS pH 7.4 plus 1 mM CaCl2) was stimulated with Staphylococcus aureus (LS1)-conditioned medium (1.0%, 3 h) after 15 min preincubation with DMSO (0.1%) or test compounds and stopped by addition of ice-cold MeOH (2.5 mL) containing deuterium-labeled internal standards (200 pg d8-5S-hydroxyeicosatetraenoic acid (HETE), d4-leukotriene (LT)B4, d5-lipoxin (LX)A4, d5-resolvin (Rv)D2, d4-prostaglandin (PG)E2, and 2000 pg d8-arachidonic acid (Cayman Chemical, Ann Arbor, MI, USA)). […] Transitions selected for quantitation and the corresponding declustering potential (DP), entrance potential (EP), collision energy (CE) and collision cell exit potential (CXP) are listed in Table 4. […]

Another experiment has as its system 12/15-LOX product levels. Description: 12- and 15-LOX product levels in activated macrophages. The format is cell-based, human.
Text: as §2, §3

Another experiment addresses T1, human recombinant 5-LOX (Homo sapiens, UniProt P09917).
T1 construct: purchased Cayman Chemical
T1 sequence (P09917 1-674): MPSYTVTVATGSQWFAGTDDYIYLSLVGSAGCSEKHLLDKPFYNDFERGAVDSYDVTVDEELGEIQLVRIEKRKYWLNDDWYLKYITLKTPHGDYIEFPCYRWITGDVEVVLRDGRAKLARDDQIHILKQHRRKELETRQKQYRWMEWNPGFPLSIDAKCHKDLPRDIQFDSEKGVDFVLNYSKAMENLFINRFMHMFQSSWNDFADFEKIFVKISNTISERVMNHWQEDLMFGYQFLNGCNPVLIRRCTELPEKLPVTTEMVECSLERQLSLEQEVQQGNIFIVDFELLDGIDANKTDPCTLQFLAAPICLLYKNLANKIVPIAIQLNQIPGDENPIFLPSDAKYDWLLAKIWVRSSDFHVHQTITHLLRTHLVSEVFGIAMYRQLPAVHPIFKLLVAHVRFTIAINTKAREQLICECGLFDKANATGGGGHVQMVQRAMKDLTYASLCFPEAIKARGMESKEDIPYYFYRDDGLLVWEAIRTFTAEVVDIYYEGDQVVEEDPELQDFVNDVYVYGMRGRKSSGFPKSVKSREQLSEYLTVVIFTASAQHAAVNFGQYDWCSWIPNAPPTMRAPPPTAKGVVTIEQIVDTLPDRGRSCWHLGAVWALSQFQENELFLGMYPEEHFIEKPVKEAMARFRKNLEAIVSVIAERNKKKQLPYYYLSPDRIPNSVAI
As to the kind of experiment: cell-free 5-lipoxygenase activity assay. As to conditions: arachidonic acid 20 µM, 10 min at 37 °C, read-out: IC50 for inhibition of human recombinant 5-LOX. Type of experiment: biochemical. Here is the method:
Human recombinant 5-LOX (Cayman Chemical, 10 U) was pre-treated with vehicle (DMSO, 0.1%) or test compounds for 10 min in 1 mL PBS pH 7.4, 1 mM EDTA and 1 mM ATP on ice before CaCl2 (2 mM) and arachidonic acid (20 µM) were added. After 10 min at 37 °C, the reaction was stopped by the addition of ice-cold MeOH (1 mL) and PGB1 (2 ng) as internal standard. Clean-Up C-18 Endcapped SPE cartridges (100 mg, 10 mL, UCT, Bristol, PA, USA) were conditioned with MeOH (1 mL, twice) and equilibrated with water (1 mL). After acidification (530 µL PBS plus 60 mM HCl) and centrifugation (750× g, 10 min, 4 °C), supernatants containing lipid mediators were loaded onto the columns, which were first washed with water (1 mL) and then MeOH/water (25:75, 1 mL). After elution of lipid mediators with MeOH (300 µL), water (120 µL) was added and samples were centrifuged (21,100× g, 10 min, 4 °C) and subjected to LC-PDA analysis. 5-LOX products, including all trans-isomers of LTB4 and 5-HETE, were separated at 40 °C and a flow rate of 0.45 mL/min on a Kinetex C-18 LC column (100Å, 1.3 μm, 2.1 × 50 mm, Phenomenex, Torrance, CA) using a Nexera X2 UHPLC system (Shimadzu, Kyoto, Japan). The step gradient of mobile phase A (water/MeOH, 50/50, 0.05% trifluoroacetic acid) and mobile phase B (MeOH, 0.05% trifluoroacetic acid) was kept at 14% B for 2 min, followed by 46% B for 2 min and 90% B for another 2 min. LTB4 isomers and 5-HETE were detected with a photodiode array detector (SPD-M20A, Shimadzu, Kioto, Japan) at 280 nm and 235 nm, respectively. Lipid quantitieswere calculated by internal calibration using PGB1 as reference standard.
Data are expressed as mean ± s.e.m. and single data from n = 4–8 independent experiments. […] Data were analyzed using Microsoft Excel (Office 365, Version: 2204, Albuquerque, New Mexico), and statistics were performed using GraphPad Prism (GraphPad Software version 9.3.1, Dotmatics, Boston, UK). IC50 values were calculated by non-linear regression (GraphPad Prism 9.3.1).

For a further experiment, the system named is 5-LOX product formation. Description: 5-LOX product formation in activated human M1 macrophages (metabololipidomics). The following applies: Macrophage, cell-based, Staphylococcus aureus-conditioned medium 1.0%, 3 h, 15 min preincubation, read-out: IC50 for inhibition of 5-LOX product formation.
Text: as §1, with “RT). […]” for “RT).”
(§4) Lipid mediator biosynthesis in human M1/M2 macrophages (1.5 mL PBS pH 7.4 plus 1 mM CaCl2) was stimulated with Staphylococcus aureus (LS1)-conditioned medium (1.0%, 3 h) after 15 min preincubation with DMSO (0.1%) or test compounds and stopped by addition of ice-cold MeOH (2.5 mL) containing deuterium-labeled internal standards (200 pg d8-5S-hydroxyeicosatetraenoic acid (HETE), d4-leukotriene (LT)B4, d5-lipoxin (LX)A4, d5-resolvin (Rv)D2, d4-prostaglandin (PG)E2, and 2000 pg d8-arachidonic acid (Cayman Chemical, Ann Arbor, MI, USA)). […] The gradient of mobile phase A (water/MeOH, 90/10, 0.01% acetic acid) and mobile phase B (MeOH, 0.01% acetic acid) was ramped at a flow rate of 0.35 mL/min from 35.6% to 84.4% B within 12.5 min followed by 5 min of isocratic elution at 97.8% B. Lipid mediators and fatty acids were analyzed in the negative ion mode by scheduled multiple reaction monitoring (detection window: 120 s) using a QTRAP 6500^+ Mass Spectrometer (Sciex), which was equipped with an electrospray ionization source. […]

Another experiment deals with COX product formation. As to the kind of experiment: COX product formation in activated human M1 macrophages (metabololipidomics). Type of experiment: cell-based.
Text: as §1, with “RT). […]” for “RT).”
as §4

For the next experiment, the system named is cell apoptosis. Also on record: method as in PMID 18840408, PMID 18262737. As to conditions: cited from earlier work.
Experiment [3] concerns 5-lipoxygenase (5-LOX) pathway. Also on record: method as in PMID 28165233. The following applies: cited from earlier work.

Turning to `COc1cc(-c2cc(=O)c3c(O)c(C/C=C(\C)CCC=C(C)C)c(O)cc3o2)ccc1O` [Compound 7a, cannflavin A], in [1], the “inhibition of mPGES-1” value was “potent inhibitors”.
As for `COC1=CC(=O)C2=C(C1=O)c1c(cc(OC)cc1OC)CC2` [Compound 5, 9,10-dihydro-3,5,7-trimethoxy-1,4-phenanthrenequinone], in the experiment on human M2 macrophages, the “D-series Rv (RvDs) levels” value was “but not RvDs levels”, the “maresin 2 (MaR2) levels” value is listed as “elevated”, the “protectins (PDs) levels” value is given as “elevated” and the “release of polyunsaturated fatty acids (PUFAs)” value is on record as “decreased”. The “ratio of DHETs/EETs (indicator of sEH activity)” value in experiment [2] was “significantly elevated”. The 12/15-LOX product levels entry in the experiment with 12/15-LOX product levels is “slightly but significantly lowered”. Further, the IC50 on human recombinant 5-LOX came out at 20.1 µM. Further, the IC50 in the experiment with 5-LOX product formation was 1 µM. In addition, the IC50 with COX product formation (Macrophage, cell-based, Staphylococcus aureus-conditioned medium, read-out: IC50 for inhibition of COX product (prostanoid) formation) is 2 µM.
With `COc1cc(-c2cc(=O)c3c(O)c(CC=C(C)C)c(O)cc3o2)ccc1O` [Compound 8, cannflavin B], in [1], the “inhibition of mPGES-1” value was “potent inhibitors”.
Regarding `COC1=CC(=O)c2ccc3cc(OC)cc(O)c3c2C1=O` [Compound 4, denbinobin], the cell apoptosis induction entry in the experiment with cell apoptosis is “cell apoptosis-inducing properties”.
Regarding `COc1cc(O)c2c(c1)CCc1cc(OC)c(OC)c(O)c1-2` [Compound 9, 9,10-dihydro-2,3,7-trimethoxy-4,5-phenanthrenediol], in the experiment on human M2 macrophages, the “D-series Rv (RvDs) levels” value is recorded as “raised”; the “formation of SPM precursors, including 17-HDHA, 15-HEPE and 15-HETE” value was “enhanced formation”; the “maresin 2 (MaR2) levels” value is on record as “raised”; the “production of specialized pro-resolving mediators (SPMs)” value is reported as “stimulated”. Moreover, the “protectins (PDs) levels” value in the experiment with human M2 macrophages is listed as “raised”. Further, the concentration for half-maximal inhibition (IC50) on human recombinant 5-LOX stood at 6.9 µM. Also, in the experiment on 5-LOX product formation, the concentration for half-maximal inhibition (IC50) amounted to 3.8 µM. Moreover, in the experiment on COX product formation, the “effect on COX product formation” value was “substantially elevated”.
As to `COc1cc(O)cc(CCc2ccc(OC)c(O)c2CC=C(C)C)c1` [Compound 6, canniprene], in experiment [3], the “production of inflammatory eicosanoids via the 5-LOX pathway” value is “potently inhibits”.
Regarding `COc1cc2c(c(OC)c1O)-c1c(ccc(OC)c1O)CC2` [Compound 10, 9,10-dihydro-2,4,6-trimethoxy-3,5-phenanthrenediol], in the experiment with human M2 macrophages, the “maresin 2 (MaR2) levels” value was “selectively increased” and the “production of specialized pro-resolving mediators (SPMs)” value is given as “stimulated”. Also, the “ratio of DHETs/EETs (indicator of sEH activity)” value in experiment [2] was “only increased by trend”. In addition, the IC50 at human recombinant 5-LOX worked out at 4.6 µM. Besides, the IC50 in the experiment with 5-LOX product formation was 8.5 µM. Also, in the experiment with COX product formation, the “effect on COX product formation” value is reported as “substantially elevated”.
